The text below walks through data of ChEMBL document CHEMBL1201862, “PubChem BioAssay data set” (2004).

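Where inhibition never reached the appropriate level, the endpoint shown equals the highest concentration tested. Otherwise, values were interpolated linearly from a five-concentration, 48-hour dose response in 96-well plates. At the GI50, growth is halved.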 Active and inactive are the calls of the source. No stated cut-off is given here; in the data, active = GI50 up to about 1.1 µM and inactive = higher.

Some test systems named below: SF-539; OVCAR-3; RXF 393; PC-3; Hs-578T; BT-549; HCT-116; 786-0; CAKI-1; UACC-257; SF-295; OVCAR-8; Malme-3M; RPMI-8226; A498; DU-145; ACHN; UO-31; OVCAR-5; NCI-H226.
Common to all, as to assay: NCI anticancer screen, dose series, 48 h

`CC(C)(C)OC(=O)NC1CCCCC1NC(=O)C(=O)NC1CCCCC1NC(=O)OC(C)(C)C` (stereo not given): the GI50 was 45.4 µM (inactive) in the experiment with SF-539; > 100 µM (inactive) in the experiment with OVCAR-3; 9.46 µM (inactive) in the experiment on RXF 393; > 100 µM (inactive) in the experiment on PC-3; 16.9 µM (inactive) with Hs-578T; 53.5 µM (inactive) in the experiment on BT-549. In addition, the GI50 with HCT-116 is 78.2 µM (inactive); in the experiment on 786-0, 34.7 µM (inactive); in the experiment with CAKI-1, 43 µM (inactive); in the experiment with UACC-257 it was > 100 µM (inactive); in the experiment with SF-295, 29.1 µM (inactive); with OVCAR-8, > 100 µM (inactive). Further, the GI50 in the experiment with Malme-3M is > 100 µM (inactive); in the experiment with RPMI-8226, > 100 µM (inactive); with A498, 32.7 µM (inactive); in the experiment on DU-145 it was > 100 µM (inactive); with ACHN, 39.1 µM (inactive); in the experiment with UO-31, > 100 µM (inactive). For the same molecule, the GI50 in the experiment with OVCAR-5 and with NCI-H226 was > 100 µM (inactive) throughout.
Consider `Cc1c(N)nc([C@H](CC(N)=O)NC[C@H](N)C(N)=O)nc1C(=O)N[C@H](C(=O)N[C@H](C)[C@@H](O)CC(=O)N[C@H](C(=O)NC(O[C@@H]1O[C@@H](C)[C@@H](N)[C@@H](O)[C@H]1O)C(O)c1nc(-c2nc(C(=O)NCCC[S+](C)C)cs2)cs1)[C@@H](C)O)[C@H](O[C@@H]1O[C@@H](CO)[C@@H](O)[C@H](O)[C@@H]1O[C@H]1O[C@H](CO)[C@@H](O)[C@H](OC(N)=O)[C@@H]1O)c1c[nH]cn1` (stereo not given in full), for which the GI50 in the experiment with SF-539 was 2.2 µM (inactive); with OVCAR-3, 95.3 µM (inactive); in the experiment on RXF 393 it was 25.8 µM (inactive); with PC-3, 65 µM (inactive); in the experiment on Hs-578T, 6.17 µM (inactive); with BT-549 it was > 100 µM (inactive). The GI50 in the experiment on HCT-116 is 15.1 µM (inactive); in the experiment on 786-0 it was 13.9 µM (inactive); with CAKI-1 it was 73.8 µM (inactive); in the experiment on UACC-257, > 100 µM (inactive); with SF-295 it was 5.46 µM (inactive); with OVCAR-8, 48.9 µM (inactive). Further, the GI50 in the experiment with Malme-3M was 37.2 µM (inactive); in the experiment on RPMI-8226 it was > 100 µM (inactive); in the experiment on A498, 67.1 µM (inactive); in the experiment with DU-145, > 100 µM (inactive); in the experiment on ACHN, 0.773 µM (active); with UO-31 it was 26.7 µM (inactive). Moreover, the GI50 with OVCAR-5 is > 100 µM (inactive); in the experiment on NCI-H226, 21 µM (inactive).
